Test [1] relates to Mycosphaerella graminicola; anamorph: Septoria tritici (SEPTTR). The experiment in a line: Fungicidal activity: leaf blotch of wheat (SEPTTR), wheat seedlings sprayed and inoculated. Format: in vivo. To be noted: 50 ppm, wheat plants (variety Yuma); for SEPTTR 1DP (% disease control rating): 1 Day Protectant; for SEPTTR 3DC (% disease control rating): 3 Day Curative. The protocol:
Technical grades of materials shown in Table 1 below were dissolved in acetone, which were then mixed with nine volumes of water containing 110 ppm Triton X-100. The fungicide solutions were applied onto wheat seedlings using an automated booth sprayer to run-off. All sprayed plants were allowed to air dry prior to further handling. All fungicides were evaluated using the aforementioned method for their activity vs. all target diseases. Wheat plants (variety Yuma) were grown from seed in a greenhouse in 50% mineral soil/50% soil-less Metro mix until the first leaf was fully emerged, with 7-10 seedlings per pot. These plants were inoculated with an aqueous spore suspension of Septoria tritici either prior to or after fungicide treatments. After inoculation the plants were kept in 100% relative humidity (one day in a dark dew chamber followed by two to three days in a lighted dew chamber at 20° C.) to permit spores to germinate and infect the leaf. The plants were then transferred to a greenhouse set at 20° C. for disease to develop. When disease symptoms were fully expressed on the 1st leaves of untreated plants, infection levels were assessed on a scale of 0 to 100 percent disease severity. Percent disease control was calculated using the ratio of disease severity on treated plants relative to untreated plants.

For test [2], the system named is Puccinia triticina; synonym: Puccinia recondita f. sp. tritici (PUCCRT). The experiment in a line: Fungicidal activity: wheat brown rust (PUCCRT), wheat seedlings sprayed and inoculated. Format: in vivo. To be noted: 50 ppm, wheat plants (variety Yuma); for PUCCRT 1DC (% disease control rating): 1 Day Curative; for PUCCRT 1DP (% disease control rating): 1 Day Protectant.

Molecules are shown by their SMILES.

This note sets out measurements from US9914726B2, “2-(2,4-difluorophenyl)-1,1-difluoro-1-(5-substituted-pyridin-2-yl)-3-(1H-tetrazol-1-yl)propan-2-ols and processes for their preparation” (Viamet Pharmaceuticals, Inc., priority 2014, dated 2018).

Take `CC(=O)c1nnnn1CC(O)(c1ccc(F)cc1F)C(F)(F)c1ccc(Oc2ccc(C#N)cc2)cn1` (stereo not shown) [—C(O)Me, 4-((6-(3-(5-acetyl-1H-tetrazol-1-yl)-2-(2,4-difluorophenyl)-1,1-difluoro-2-hydroxypropyl)pyridin-3-yl)oxy)benzonitrile]: in test [1], the “SEPTTR 1DP (% disease control rating)” value is listed as “A (80-100)” and the “SEPTTR 3DC (% disease control rating)” value is on record as “A (80-100)”. In test [2], the “PUCCRT 1DC (% disease control rating)” value is listed as “A (80-100)” and the “PUCCRT 1DP (% disease control rating)” value was “A (80-100)”.

On to `N#Cc1ccc(Oc2ccc(C(F)(F)C(O)(Cn3nnnc3C(=O)c3ccccc3)c3ccc(F)cc3F)nc2)cc1` (stereo not shown) [—C(O)Ph, 4-((6-(3-(5-benzoyl-1H-tetrazol-1-yl)-2-(2,4-difluorophenyl)-1,1-difluoro-2-hydroxypropyl)pyridin-3-yl)oxy)benzonitrile], for which, in test [1], the “SEPTTR 1DP (% disease control rating)” value is on record as “C (40-59)” and the “SEPTTR 3DC (% disease control rating)” value is reported as “C (40-59)”. Besides, in test [2], the “PUCCRT 1DC (% disease control rating)” value is “D (<40)” and the “PUCCRT 1DP (% disease control rating)” value is given as “A (80-100)”.

On to `CCOC(=O)c1nnnn1CC(O)(c1ccc(F)cc1F)C(F)(F)c1ccc(Oc2ccc(C#N)cc2)cn1` (stereo not shown) [—CO2Et, ethyl 1-(3-(5-(4-cyanophenoxy)pyridin-2-yl)-2-(2,4-difluorophenyl)-3,3-difluoro-2-hydroxypropyl)-1H-tetrazole-5-carboxylate], for which, in test [1], the “SEPTTR 1DP (% disease control rating)” value is reported as “A (80-100)” and the “SEPTTR 3DC (% disease control rating)” value is reported as “A (80-100)”. Besides, in test [2], the “PUCCRT 1DC (% disease control rating)” value is recorded as “A (80-100)” and the “PUCCRT 1DP (% disease control rating)” value was “A (80-100)”.

In the case of `Cc1ccc(S(=O)(=O)c2nnnn2CC(O)(c2ccc(F)cc2F)C(F)(F)c2ccc(Oc3ccc(C#N)cc3)cn2)cc1` (stereo not shown) [—SO2(4-MePh), 4-((6-(2-(2,4-difluorophenyl)-1,1-difluoro-2-hydroxy-3-(5-tosyl-1H-tetrazol-1-yl)propyl)pyridin-3-yl)oxy)benzonitrile], in test [1], the “SEPTTR 1DP (% disease control rating)” value is “C (40-59)” and the “SEPTTR 3DC (% disease control rating)” value is reported as “D (<40)”. Moreover, in test [2], the “PUCCRT 1DC (% disease control rating)” value is on record as “A (80-100)” and the “PUCCRT 1DP (% disease control rating)” value is reported as “D (<40)”.
